# In PubChem BioAssay AID2694 (The Scripps Research Institute Molecular Screening Center, 2010):
# Target: Mucolipin-3 (Homo sapiens) (UniProt Q8TDD5)
# Assay: TRPML3 channel current activation, late-stage follow-up, orthogonal assay, HEK293, whole-cell patch clamp, -80 mV (AID 2694)
# Details: at 10 µM, active compounds read low
# Chain of Mucolipin-3 (Homo sapiens) (Q8TDD5 whole entry, looked up): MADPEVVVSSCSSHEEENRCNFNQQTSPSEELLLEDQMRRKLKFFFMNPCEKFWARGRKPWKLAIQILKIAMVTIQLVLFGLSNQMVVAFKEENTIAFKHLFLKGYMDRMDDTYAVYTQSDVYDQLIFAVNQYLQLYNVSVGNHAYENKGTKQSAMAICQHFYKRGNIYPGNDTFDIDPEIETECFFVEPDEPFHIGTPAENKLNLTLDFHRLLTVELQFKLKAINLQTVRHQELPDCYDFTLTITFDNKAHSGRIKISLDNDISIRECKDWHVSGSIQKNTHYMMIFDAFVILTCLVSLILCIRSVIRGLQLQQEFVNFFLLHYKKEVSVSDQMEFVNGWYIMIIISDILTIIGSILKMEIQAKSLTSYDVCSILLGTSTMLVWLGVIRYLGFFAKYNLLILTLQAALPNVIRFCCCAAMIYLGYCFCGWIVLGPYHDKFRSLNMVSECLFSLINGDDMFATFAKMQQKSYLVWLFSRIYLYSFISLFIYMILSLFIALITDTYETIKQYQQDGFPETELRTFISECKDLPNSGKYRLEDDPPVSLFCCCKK
row,current density at -80 mV [nA/pF],SMILES
1,-0.19,CCOc1ccc(S(=O)(=O)N2CCCCCC2)c2ccccc12
2,-0.02,CC1CCN(S(=O)(=O)c2ccc(C(C)C)cc2)CC1
3,-0.14,Cc1ccc(S(=O)(=O)n2nccc2-c2c(-c3ccc(Cl)cc3)noc2C)cc1
